These results are taken from ChEMBL document CHEMBL1154198, “Chemical genetics of Plasmodium falciparum” (Nature, 2010).

The subject of assay [1] is Plasmodium falciparum. The assay is described as follows: ST_JUDE: Plasmodium falciparum K1 EC50 (uM) as measured by SYBR green dye. The assay is classed as functional, organism-based.
The test system of assay [2] is Plasmodium falciparum. The assay is described as follows: ST_JUDE: Plasmodium falciparum 3D7 EC50 (uM) as measured by SYBR green dye. The assay is classed as functional, organism-based.

Usually EC50 stands for the concentration that produces a half-maximal response. Consider `O=C(Nc1cc(Cl)cc(Cl)c1)Nc1ccc(Cl)c(Cl)c1`, for which the EC50 in the assay on Plasmodium falciparum [1] came to 0.496 µM; in the assay on Plasmodium falciparum [2] it was 0.772 µM.
In the same order, the values of `Cc1ccnc(NC(c2cccc(Cl)c2Cl)c2ccc3cccnc3c2O)c1` (stereo not given) are 1.67 µM and 1.5 µM.
In the same order, the values of `COc1cccc(NC(=O)Cn2c(C)c(C(=O)C(F)(F)F)c3ccccc32)c1` are 1.62 µM and over 15 µM.
In the same order, the values of `CCOC(=O)c1c(CN(CC)CC)n(-c2ccccc2)c2cc(Br)c(O)cc12` are 3.45 µM and 1.78 µM.
Consider `COc1ccc(OC)c(NC(=O)CSc2nc(-c3ccccc3Cl)ns2)c1`, for which the EC50 in the assay with Plasmodium falciparum [1] stood at 1.42 µM; in the assay on Plasmodium falciparum [2], 1.25 µM.
In the same order, the values of `CCOC(=O)c1nnn(-c2nonc2N)c1-c1ccc(Cl)cc1` are 3.47 µM and over 15 µM.
For `COc1ccc2c(ccc(/C=C3\C=CC=CN3C)[n+]2C)c1`, the figures for the EC50 in the assay with Plasmodium falciparum [1] and in the assay on Plasmodium falciparum [2] were 0.842 µM and 1.17 µM, respectively.
Turning to `O=C(Cc1ccc(Br)cc1)OCC(=O)c1ccc(F)cc1`, the EC50 in the assay with Plasmodium falciparum [1] and in the assay with Plasmodium falciparum [2] was over 15 µM throughout.
With `CO/C(O)=C1\C(C)=NC2=C(C(=O)CC(c3ccccc3OC)C2)C1c1ccc(OC)c(OC)c1` (stereo not given), the EC50 in the assay on Plasmodium falciparum [1] and in the assay with Plasmodium falciparum [2] was over 15 µM in each case.
Consider `COc1ccc(CCNC(=S)Nc2ccccc2Cl)cc1OC`, for which the EC50 came out at 1.36 µM in the assay with Plasmodium falciparum [1] and 1.29 µM with Plasmodium falciparum [2].
As to `CCOc1ccccc1NC(=S)N1CCN(c2ccc(OC)cc2)C(C)C1` (stereo not given), the results for the concentration giving a half-maximal response (EC50) in the assay with Plasmodium falciparum [1] and in the assay on Plasmodium falciparum [2] were 4.26 µM and 2.85 µM, respectively.
Consider `Cc1ccc2nc(C)cc(Nc3cccc(C(F)(F)F)c3)c2c1`, for which the EC50 turned out to be 6.01 µM in the assay with Plasmodium falciparum [1] and 0.879 µM in the assay with Plasmodium falciparum [2].
For `CCOC(=O)C1=C(Nc2ccc(Cl)cc2)S/C(=C\c2cccc(OC)c2O)C1=O`, in that order: 4 µM and over 15 µM.
`CCN(CC)c1ccc(/C=C/C2=[N+](C)c3ccc(C(=O)OC)cc3C2(C)C)cc1`: the EC50 was over 15 µM in the assay with Plasmodium falciparum [1] and 3.08 µM with Plasmodium falciparum [2].
For `C#CCOc1cc(Br)c(C2CC(=O)Nc3ccc4ccccc4c32)cc1OC` (stereo not given), in that order: 2.96 µM and 3.96 µM.
In the same order, the values of `Cc1ccc(NC(=O)CSc2nncc(O)n2)cc1` are 0.924 µM and 4.88 µM.
In the same order, the values of `COc1ccc(N2CCN(C(CNC(=O)c3ccc(C(C)(C)C)cc3)c3ccco3)CC2)cc1` (stereo not given) are 1.51 µM and over 15 µM.
Turning to `Cc1ccccc1NC(=O)C1c2ccccc2C(=O)N(C2CCCC2)C1c1cccs1` (stereo not given), the concentration for a half-maximal effect (EC50) with Plasmodium falciparum [1] was 4.34 µM; with Plasmodium falciparum [2], 2.82 µM.
As for `CC(=O)N(C1=C(N2CCOCC2)C(=O)c2ccccc2C1=O)c1ccc(C(=O)O)cc1`, the figures for the concentration giving a half-maximal response (EC50) in the assay with Plasmodium falciparum [1] and in the assay on Plasmodium falciparum [2] were 2.64 µM and over 15 µM, respectively.
In the same order, the values of `COc1ccc(Cl)cc1N(C)C(=O)c1cc2c(s1)-c1ccccc1S(=O)(=O)C2` are 1.78 µM and 1.35 µM.
`COc1ccc(-n2c(=O)c3c4c(sc3n3c(SCc5ccccc5)nnc23)COC(C)(C)C4)cc1`: the EC50 with Plasmodium falciparum [1] was over 15 µM; in the assay with Plasmodium falciparum [2], 11.3 µM.
Take `Oc1c(CN2CCN(c3cccc(C(F)(F)F)c3)CC2)cc(COCc2ccccc2)c2cccnc12`: the results for the EC50 in the assay with Plasmodium falciparum [1] and with Plasmodium falciparum [2] were 1.45 µM and 2.33 µM, respectively.
Consider `COc1ccc(NC2=C(N3CCOCC3)C(=O)c3ccccc3C2=O)cc1`, for which the EC50 was 0.286 µM with Plasmodium falciparum [1] and over 15 µM in the assay on Plasmodium falciparum [2].
For `CCc1cccc(NC(=O)c2cc3c(-c4ccc(OC)c(OC)c4)nn(C)c3s2)c1`, in that order: over 15 µM and over 15 µM.
On to `CCCN(CCC)CCCNC(=O)c1ccc2c(Cl)c3c(nc2c1)CCCC3`, for which the EC50 with Plasmodium falciparum [1] and in the assay on Plasmodium falciparum [2] was over 15 µM in each case.
With `CC(C)(C)c1ccc(C(=O)CC(=O)c2cc(Cl)ccc2O)cc1`, the EC50 in the assay on Plasmodium falciparum [1] and with Plasmodium falciparum [2] was over 15 µM each time.
With `CC(C)Cc1ccc(S(=O)(=O)N2c3ccccc3CC2C)cc1` (stereo not given), the EC50 in the assay with Plasmodium falciparum [1] and in the assay with Plasmodium falciparum [2] was over 15 µM throughout.
Turning to `CCOc1ccc(NC(=O)C2c3cc(OC)c(OC)cc3C(=O)N(C)C2c2ccc(OC)cc2)cc1` (stereo not given), the EC50 is 1.07 µM in the assay on Plasmodium falciparum [1] and over 15 µM in the assay on Plasmodium falciparum [2].
In the case of `CCN(CC)CCNC(=O)c1ccc(Cn2c(SCc3ccccc3C)nc3ccncc32)cc1`, the figures for the half-maximal effective concentration (EC50) with Plasmodium falciparum [1] and with Plasmodium falciparum [2] were over 15 µM and 6.74 µM, respectively.
For `CCc1ccc(S(=O)(=O)/N=C2/C=C(Sc3nc[nH]n3)C(=O)c3ccccc32)cc1`, in that order: 6.99 µM and 4.79 µM.
For `C/C(Cl)=C\C[N+]1(C/C=C(\C)Cl)CCCCC1`, in that order: over 15 µM and over 15 µM.
Regarding `CCOc1ccccc1N1CCN(Cc2cc(Br)cc(Br)c2O)CC1`, the EC50 is 3.78 µM in the assay on Plasmodium falciparum [1] and 8.24 µM in the assay on Plasmodium falciparum [2].
In the same order, the values of `COc1ccc(C2C(C(=O)Nc3cnc4ccccc4c3)c3ccccc3C(=O)N2C2CCCCC2)cc1` (stereo not given) are 3.37 µM and 1.63 µM.
With `COC(=O)c1cc(NS(=O)(=O)c2ccccc2[N+](=O)[O-])cc(C(=O)OC)c1`, the EC50 in the assay with Plasmodium falciparum [1] and in the assay with Plasmodium falciparum [2] was over 15 µM throughout.
In the case of `CC(C)(C)c1ccc2c(c1)CN(Cc1ccc(Cl)cc1)CO2`, the values for the EC50 in the assay with Plasmodium falciparum [1] and in the assay with Plasmodium falciparum [2] were 0.0389 µM and 0.255 µM, respectively.
For the compound `CCOc1ccc(Nc2cc(C)nc3ccc(OCC)cc23)cc1`, the EC50 was 3.48 µM with Plasmodium falciparum [1] and 1.1 µM with Plasmodium falciparum [2].
Regarding `CC(=O)NC(c1ccc(C(C)C)cc1)c1ccc2cccnc2c1O` (stereo not given), the EC50 in the assay with Plasmodium falciparum [1] came out at 6.76 µM; in the assay with Plasmodium falciparum [2], 6.6 µM.
For `CC(C)C[C@@H](CO)Nc1c2ccccc2nc2ccccc12`, in that order: 4.3 µM and 2.85 µM.
Regarding `CCCCn1c(=N)n(CC(O)c2ccc(Cl)cc2)c2ccccc21` (stereo not given), the values for the EC50 in the assay on Plasmodium falciparum [1] and in the assay with Plasmodium falciparum [2] were 0.544 µM and 0.574 µM, respectively.
In the same order, the values of `CCCCNc1nc(Nc2cccc(C)c2)c2cnn(-c3ccccc3)c2n1` are 7.9 µM and over 15 µM.
As for `Cc1c(Cl)c(C(F)(F)F)nn1CC(=O)Nc1cccc(C(F)(F)F)c1`, the EC50 in the assay on Plasmodium falciparum [1] is 4.43 µM; in the assay with Plasmodium falciparum [2], over 15 µM.
In the same order, the values of `CCOc1ccc2c(c1)C(=NNC(=N)N)c1cc(OCC)ccc1-2` are 6.96 µM and 0.398 µM.
In the same order, the values of `COc1cc(Br)c(C2C(C#N)=C(N)Oc3cc(O)ccc32)cc1OC` (stereo not given) are 5.8 µM and over 15 µM.
Regarding `Cc1ccc2c(c1)c1c(n2CC(O)Cn2cnc(-c3ccccc3)c2-c2ccccc2)CCCC1` (stereo not given), the values for the concentration for a half-maximal effect (EC50) with Plasmodium falciparum [1] and with Plasmodium falciparum [2] were 1.08 µM and 2.02 µM, respectively.
In the same order, the values of `COc1ccc2sc(N(Cc3cccnc3)C(=O)c3ccc(C#N)cc3)nc2c1` are over 15 µM and over 15 µM.
In the same order, the values of `Clc1cccc(C2Nc3ccccc3-c3nc4ccccc4n32)c1` (stereo not given) are 4.63 µM and over 15 µM.
For the compound `Cc1cccc(C(=O)NCc2nnc(S)n2-c2cccc(C(F)(F)F)c2)c1`, the EC50 in the assay with Plasmodium falciparum [1] and in the assay with Plasmodium falciparum [2] was over 15 µM each time.
For the compound `CCOc1cccc(CN2CCCC(C(=O)c3cccc(C(F)(F)F)c3)C2)c1O` (stereo not given), the EC50 came out at 1.09 µM in the assay on Plasmodium falciparum [1] and 3.34 µM in the assay on Plasmodium falciparum [2].
Consider `C=CCN(CC=C)CCN1CCN(C(=O)Nc2cc(C(F)(F)F)cc(C(F)(F)F)c2)CC1`, for which the 50% effective concentration (EC50) in the assay on Plasmodium falciparum [1] is 0.535 µM; in the assay on Plasmodium falciparum [2], 0.711 µM.
For the compound `CCOc1ccc(S(=O)(=O)NC2=C/C(=N\c3ccc(O)cc3)C(=O)c3ccccc32)cc1`, the EC50 came to 1.03 µM with Plasmodium falciparum [1] and 1.25 µM in the assay with Plasmodium falciparum [2].
